Reference: patent US20250270201A1, “SUBSTITUTED PYRIMIDINYL HYDRAZIDE COMPOUND AND PREPARATION METHOD AND USE THEREOF” (ARIGENX THERAPEUTICS CO., LTD., priority 2022, published 2025)

Target: T1, AHR (Homo sapiens, UniProt P35869)
T1 construct: A human liver cancer cell line HepG2 endogenously expressing an AHR protein; host or cells: HepG2 stably transfected with a CYP1A1-promoter firefly luciferase reporter
T1 sequence (P35869 11-848): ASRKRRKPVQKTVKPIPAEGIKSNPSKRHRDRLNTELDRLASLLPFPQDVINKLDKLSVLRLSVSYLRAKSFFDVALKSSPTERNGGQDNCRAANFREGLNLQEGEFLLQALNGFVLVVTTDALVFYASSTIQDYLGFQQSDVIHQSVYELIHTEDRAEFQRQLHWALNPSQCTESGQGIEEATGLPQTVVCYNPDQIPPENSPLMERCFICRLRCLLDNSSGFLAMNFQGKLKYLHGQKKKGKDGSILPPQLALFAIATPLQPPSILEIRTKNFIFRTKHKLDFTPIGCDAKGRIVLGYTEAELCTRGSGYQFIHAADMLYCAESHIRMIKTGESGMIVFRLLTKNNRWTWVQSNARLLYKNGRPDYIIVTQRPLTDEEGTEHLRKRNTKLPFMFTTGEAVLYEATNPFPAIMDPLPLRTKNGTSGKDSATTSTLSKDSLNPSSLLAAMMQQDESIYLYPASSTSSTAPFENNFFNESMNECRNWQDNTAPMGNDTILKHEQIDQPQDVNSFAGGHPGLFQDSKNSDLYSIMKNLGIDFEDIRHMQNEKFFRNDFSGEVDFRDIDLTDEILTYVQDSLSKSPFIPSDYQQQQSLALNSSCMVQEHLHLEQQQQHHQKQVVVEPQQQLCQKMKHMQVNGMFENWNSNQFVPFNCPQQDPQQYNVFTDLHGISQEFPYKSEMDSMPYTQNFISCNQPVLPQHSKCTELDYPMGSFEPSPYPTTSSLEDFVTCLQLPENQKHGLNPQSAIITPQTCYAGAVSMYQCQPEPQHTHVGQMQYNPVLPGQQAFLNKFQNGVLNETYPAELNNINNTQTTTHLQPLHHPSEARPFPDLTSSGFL
Experiment: Antagonistic effect for AHR in HepG2 cells stably transfected with CYP1A1-promoter firefly luciferase reporter
Format: cell-based
Conditions: AHR agonist-stimulated, 24 h compound treatment, average of two replicates
Excerpt: A human liver cancer cell line HepG2 endogenously expressing an AHR protein (provided by the Stem Cell Bank of the Chinese Academy of Sciences) was adopted for testing. The expression of a CYP1A1 gene is regulated by an activity of AHR. After being activated, AHR can bind to a sequence called XRE on a CYP1A1 enhancer and initiate the expression of the CYP1A1 gene. To quantitatively determine an impact of a compound on the activity of AHR, a 1,200 bp (−1,143 to +57) regulatory sequence upstream of a promoter of the CYP1A1 gene was synthesized through gene synthesis and then inserted into a plasmid vector carrying firefly luciferase. The plasmid was then linearized through single enzyme cleavage and then transfected into HepG2 cells through lipofectin transfection (Lipofectamine 3000), and transfected HepG2 cells were screened by puromycin to obtain a stably-expressed cell line. When an antagonistic effect of a compound for AHR was tested, the expression of firefly luciferase was initiated by an AHR agonist (such as L-kynurenine, kynurenic acid, indirubin, TCDD, and 2-(1H-indol-3-ylcarbonyl)-4-thiazolecarboxylic acid methyl ester (ITE)), and cells were treated with the compound at different concentrations. Then, the inhibition on the expression of luciferase by the compound was measured.
Stably-transfected HepG2 cells were sub-cultivated in Minimum Eagle's medium (MEM) at 37° C. and 5% carbon dioxide. In the MEM, 1 mM sodium pyruvate, 2 mM GlutaMax, 1×non- essential amino acids, 10% Australian fetal bovine serum, 100 U/mL penicillin-streptomycin, and 5 μg/mL puromycin were supplemented. Before testing, HepG2 cells were inoculated into a 96-well plate at a density of 5-8×10^4 cells/well and cultivated for 24 h to 48 h to allow a cell confluency of about 90% before a drug treatment (puromycin was not added in a medium). Before the drug treatment, AHR agonist-containing 2×compound solutions at different concentrations were prepared with a same medium, and then a half of a cell culture medium in the 96-well plate was replaced with a 2×compound solution. An AHR agonist solution including only DMSO at a corresponding concentration was set as a negative control group, and CH223191 at a corresponding concentration (commercially available) was set as a positive control group. 2 separate replicate tests were set for each compound (including a positive control and a negative control). 24 h after the compound treatment, HepG2 cells were lysed by a Steady-Glo luciferase detection system of Promega, and a luciferase signal was measured by an InfiniteM1000 Pro microplate reader of Tecan.
In terms of data processing, for each replicate test of each compound, inhibition percentages of a compound at different concentrations on an activity of AHR were calculated sequentially with a signal of a well at a compound concentration of 0 as 100% and a cell signal of an untreated agonist as 0. Corresponding IC50 of a compound was calculated with an average value of data of two replicates according to the formula
tirougn non-nnear ning, where y represents an inhibition percentage and x represents a concentration of a corresponding compound.
IC50 for each compound was shown in Table 2, where A indicates IC50≤500 nM, B indicates 500 nM<IC50≤1.0 μM, C indicates 1 μM<IC50≤5.0 μM, and D indicates IC50>5.0 μM.

IC50	Compound
≤ 500 nM	CCN(NC(=O)c1cc(-c2ccc(C(F)(F)F)cc2)nc(-c2cccc(F)c2)n1)C(C)CO (centres unmarked) [Compound 52]
≤ 500 nM	CC(C)NNC(=O)c1cc(-c2ccc(C(F)(F)F)cc2)nc(-c2cccnc2)n1 [Compound 10]
≤ 500 nM	CC(C)N(NC(=O)c1cc(-c2ccc(C(F)(F)F)cc2)nc(-c2cccnc2)n1)C(C)CO (centres unmarked) [Compound 1, 6-(4-trifluoromethylenyl)-N-(1-hydroxypropyy1-2-yl)-N-isopropyl-2-(pyridin-3-yl)pyrimidin-4-hydrazide]
≤ 500 nM	O=C(NN1CCOC[C@@H]1CO)c1cc(-c2ccc(Cl)cc2)nc(-c2cccnc2)n1 [Compound 47]
≤ 500 nM	O=C(NN1CCOC[C@H]1CO)c1cc(-c2ccc(C(F)(F)F)cc2)nc(-c2cccnc2)n1 [Compound 42]
≤ 500 nM	O=C(NN1CCOCC1CO)c1cc(-c2ccc(C(F)(F)F)cc2)nc(-c2cccnc2)n1 (centres unmarked) [Compound 23]
≤ 500 nM	O=C(NN1C(=O)COCC1CO)c1cc(-c2ccc(Cl)cc2)nc(-c2cccnc2)n1 (centres unmarked) [Compound 29]
≤ 500 nM	CCN(CCO)NC(=O)c1cc(-c2ccc(Cl)cc2)nc(-c2cccnc2)n1 [Compound 21]
≤ 500 nM	O=C(NN1CCOC[C@@H]1CO)c1cc(-c2ccc(C(F)(F)F)cc2)nc(-c2cccnc2)n1 [Compound 43]
500 to 1000 nM	CC(C)N(NC(=O)c1cc(-c2ccc(F)cc2)nc(-c2cccnc2)n1)C(C)CO (centres unmarked) [Compound 59]
≤ 500 nM	CC(C)N(NC(=O)c1cc(-c2ccc(C(F)(F)F)cc2)nc(-c2cccnc2)n1)C(=O)c1cccnc1 [Compound 68]
≤ 500 nM	C[C@H]1COCCN1NC(=O)c1cc(-c2ccc(Cl)cc2)nc(-c2cnn(C)c2)n1 [Compound 41]
≤ 500 nM	CCN(NC(=O)c1cc(-c2ccc(Cl)cc2)nc(-c2cccc(F)c2)n1)C(C)CO (centres unmarked) [Compound 54]
≤ 500 nM	CN(CCO)NC(=O)c1cc(-c2ccc(Cl)cc2)nc(-c2cccnc2)n1 [Compound 17]
≤ 500 nM	CC(C)N(NC(=O)c1cc(-c2ccc(Cl)cc2)nc(-c2cccnc2)n1)C(C)CO (centres unmarked) [Compound 2]
500 to 1000 nM	CC(C)N(NC(=O)c1cc(-c2ccc(C(F)(F)F)nc2)nc(-c2cccc(F)c2)n1)C(C)CO (centres unmarked) [Compound 65]
500 to 1000 nM	O=C(NN1CCS(=O)(=O)CC1)c1cc(-c2ccc(C(F)(F)F)cc2)nc(-c2cccnc2)n1 [Compound 25]
≤ 500 nM	C[C@@H]1COCCN1NC(=O)c1cc(-c2ccc(Cl)cc2)nc(-c2cnn(C)c2)n1 [Compound 40]
≤ 500 nM	CC1COCC(=O)N1NC(=O)c1cc(-c2ccc(OC(F)(F)F)cc2)nc(-c2cccnc2)n1 (centres unmarked) [Compound 11]
500 to 1000 nM	Cc1ccc(-c2cc(C(=O)NN(C(C)C)C(C)CO)nc(-c3cccnc3)n2)cn1 (centres unmarked) [Compound 50]
≤ 500 nM	CC1(C)COCCN1NC(=O)c1cc(-c2ccc(Cl)cc2)nc(-c2cccnc2)n1 [Compound 26]
≤ 500 nM	CC1COCC(CO)N1NC(=O)c1cc(-c2ccc(C(F)(F)F)cc2)nc(-c2cccnc2)n1 (centres unmarked) [Compound 12]
≤ 500 nM	CC(C)N(NC(=O)c1cc(-c2ccc(C(F)(F)F)nc2)nc(-c2cccc(F)c2)n1)C(C)CO (centres unmarked) [Compound 37]
≤ 500 nM	C[C@H]1COCCN1NC(=O)c1cc(-c2ccc(C(F)(F)F)cc2)nc(-c2cnn(C)c2)n1 [Compound 39]
≤ 500 nM	CC(CO)NNC(=O)c1cc(-c2ccc(C(F)(F)F)cc2)nc(-c2cccnc2)n1 (centres unmarked) [Compound 13]

IC50	Compound
≤ 500 nM	C[C@H]1COCCN1NC(=O)c1cc(-c2ccc(OC(F)(F)F)cc2)nc(-c2cnn(C)c2)n1 [Compound 15]
≤ 500 nM	CC(=O)N(NC(=O)c1cc(-c2ccc(C(F)(F)F)cc2)nc(-c2cnn(C)c2)n1)c1cnccn1 [Compound 34]
≤ 500 nM	CC(=O)N(NC(=O)c1cc(-c2ccc(C(F)(F)F)cc2)nc(-c2cccnc2)n1)C(C)C [Compound 66]
500 to 1000 nM	C[C@@H]1COCCN1NC(=O)c1cc(-c2ccc(C(F)(F)F)cc2)nc(-c2cnn(C)c2)n1 [Compound 38]
≤ 500 nM	C[C@@H]1COCCN1NC(=O)c1cc(-c2ccc(C(F)(F)F)cc2)nc(-c2cccnc2)n1 [Compound 5]
≤ 500 nM	CC(C)N(CCO)NC(=O)c1cc(-c2ccc(Cl)cc2)nc(-c2cccnc2)n1 [Compound 19]
≤ 500 nM	Cn1cc(-c2nc(C(=O)NN3CCOC[C@H]3CO)cc(-c3ccc(Cl)cc3)n2)cn1 [Compound 36]
≤ 500 nM	C[C@H]1COCCN1NC(=O)c1cc(-c2ccc(Cl)cc2)nc(-c2cccnc2)n1 [Compound 8]
≤ 500 nM	C[C@@H]1COCCN1NC(=O)c1cc(-c2ccc(OC(F)(F)F)cc2)nc(-c2cccnc2)n1 [Compound 7]
≤ 500 nM	Cn1cc(-c2nc(C(=O)NN3CCOC[C@@H]3CO)cc(-c3ccc(C(F)(F)F)cc3)n2)cn1 [Compound 44]
≤ 500 nM	CC1(C)COCCN1NC(=O)c1cc(-c2ccc(C(F)(F)F)cc2)nc(-c2cccnc2)n1 [Compound 27]
500 to 1000 nM	CC(C)N(NC(=O)c1cc(-c2cccc(F)c2)nc(-c2cccnc2)n1)C(C)CO (centres unmarked) [Compound 58]
≤ 500 nM	CCN(NC(=O)c1cc(-c2ccc(C(F)(F)F)cc2)nc(-c2cccs2)n1)C(C)CO (centres unmarked) [Compound 56]
≤ 500 nM	CC(C)N(CCO)NC(=O)c1cc(-c2ccc(C(F)(F)F)cc2)nc(-c2cnn(C)c2)n1 [Compound 20]
≤ 500 nM	CC1COCC(C)N1NC(=O)c1cc(-c2ccc(OC(F)(F)F)cc2)nc(-c2cccnc2)n1 (centres unmarked) [Compound 3]
≤ 500 nM	CC(C)N(NC(=O)c1cc(-c2ccc(C(F)(F)F)cc2)nc(-c2cccnc2)n1)S(C)(=O)=O [Compound 67]
500 to 1000 nM	CC1COCC(=O)N1NC(=O)c1cc(-c2ccc(Cl)cc2)nc(-c2cccnc2)n1 (centres unmarked) [Compound 28]
≤ 500 nM	CC(=O)N(NC(=O)c1cc(-c2ccc(C(F)(F)F)cc2)nc(-c2cccnc2)n1)c1cnccn1 [Compound 33]
≤ 500 nM	C[C@H]1COCCN1NC(=O)c1cc(-c2ccc(OC(F)(F)F)cc2)nc(-c2cccnc2)n1 [Compound 6]
500 to 1000 nM	O=C(NN1CCC[C@H]1CO)c1cc(-c2ccc(Cl)cc2)nc(-c2cccnc2)n1 [Compound 22]
≤ 500 nM	O=C(NN1CCOC[C@H]1CO)c1cc(-c2ccc(Cl)cc2)nc(-c2cccnc2)n1 (stereo in doubt) [Compound 46]
500 to 1000 nM	COc1ccc(-c2cc(C(=O)NN(C(C)C)C(C)CO)nc(-c3cccnc3)n2)cc1 (centres unmarked) [Compound 48]
500 to 1000 nM	CC1(C)CN(NC(=O)c2cc(-c3ccc(C(F)(F)F)cc3)nc(-c3cccnc3)n2)CCO1 [Compound 31]
≤ 500 nM	Cn1cc(-c2nc(C(=O)NN3CCOC[C@@H]3CO)cc(-c3ccc(Cl)cc3)n2)cn1 [Compound 35]
≤ 500 nM	C[C@@H]1COCCN1NC(=O)c1cc(-c2ccc(OC(F)(F)F)cc2)nc(-c2cnn(C)c2)n1 [Compound 16]
